{
  "source": "patent US12103916B2",
  "about": "“Antifungal compounds” (University of Kentucky Research Foundation, priority 2016, dated 2024)",
  "key": {"C. albicans ATCC 64124 [1]": {"tested_on": "C. albicans ATCC 64124", "test": "MIC determination, strain B", "assay_type": "cell-based, Candida albicans", "conditions": "Candida albicans, ATCC64124", "experimental": "(§1) The antifungal activity of our new azole compounds 1-9 and 24-41 was first evaluated against a panel of seven Candida albicans strains (A-G), three non-albicans Candida strains […], and three Aspergillus strains (K-M) in a concentration range of 0.03-31.2 μg/mL (Table 1). […] For all of our azole derivatives we report their MIC-0 values against C. albicans ATCC 10231 (strain A) and all Aspergillus strains (K-M), which correspond to complete growth inhibition of these fungi. […] The commercially available antifungals AmB, FLC, ITC, POS, and VOR were used as reference drugs for comparison. The MIC values presented for these five control drugs were either tested herein or correspond to our previously published data^5, 16 as indicated in Table 1.\n(§2) Antifungal activity in the absence or presence of serum. The antifungal activity of the newly prepared alkylated piperazine/morpholine-azole hybrids 16-28, of intermediate 14 that we used to verify that only final compounds exert antifungal activity, as well as that of alkylated piperazine/morpholine derivatives 1-10 were first evaluated against a panel of seven C. albicans (ATCC 10231 (A), ATCC 64124(R) (B), ATCC MYA-2876(S) (C), ATCC 90819(R) (D), ATCC MYA-2310(S) (E), ATCC MYA-1237(R) (F), and ATCC MYA-1003(R) (G)), three non-albicans Candida (C. glabrata ATCC 2001 (H), C. krusei ATCC 6258 (I), and C. parapsilosis ATCC 22019 (J)), and three Aspergillus (A. flavus ATCC MYA-3631 (K), A. nidulans ATCC 38163 (L), and A. terreus ATCC MYA-3633 (M)) strains using a concentration range of 0.03-31.3 μg/mL (Table 2).\n(§3) Commercially available antifungal agents such as AmB, CAS, FLC, and VOR were used as positive controls for comparison. […] It is important to note that all comparisons to follow will be done by using the MIC values reported in μg/mL as the data were collected that way. However, we also present in parentheses in Table 2 the corresponding values in micromolar.\n(§4) We used the commercially available antifungal agents such as AmB, caspofungin (CAS), FLC, and VOR as positive controls for comparison. For derivatives 5-16 as well as the reference drugs AmB and CAS, we reported MIC-0 values, which correspond to no visible growth. […] In this manuscript, we performed all activity comparisons by using the MIC values reported in μg/mL (Note: the corresponding MIC values are also provided in μM into parentheses in Tables 1, 2, S1, and S2)."}, "[2]": {"tested_on": "C. albicans ATCC MYA-2876(S)", "test": "MIC determination, strain C", "assay_type": "cell-based, Candida albicans", "conditions": "Candida albicans", "experimental": "as §1, §2, §3, §4"}, "[3]": {"tested_on": "C. albicans ATCC MYA-1237(R)", "test": "MIC determination, strain F", "assay_type": "cell-based, Candida albicans", "conditions": "Candida albicans", "description": "(§5) For all of our azole derivatives we report their MIC-0 values against C. albicans ATCC 10231 (strain A) and all Aspergillus strains (K-M), which correspond to complete growth inhibition of these fungi. […] The MIC values presented for these five control drugs were either tested herein or correspond to our previously published data^5, 16 as indicated in Table 1.\n(§6) Antifungal activity in the absence or presence of serum.\n(§7) It is important to note that all comparisons to follow will be done by using the MIC values reported in μg/mL as the data were collected that way. However, we also present in parentheses in Table 2 the corresponding values in micromolar.\n(§8) In this manuscript, we performed all activity comparisons by using the MIC values reported in μg/mL (Note: the corresponding MIC values are also provided in μM into parentheses in Tables 1, 2, S1, and S2)."}, "[4]": {"tested_on": "C. albicans ATCC MYA-1003(R)", "test": "MIC determination, strain G", "assay_type": "cell-based, Candida albicans", "conditions": "Candida albicans", "description": "as §5, §6, §7, §8"}, "[5]": {"tested_on": "C. albicans ATCC 10231 (strain A)", "test": "Time-kill assay, strain A", "assay_type": "cell-based, Candida albicans", "conditions": "Ex.2 series, compound at 4×MIC, VOR control"}, "[6]": {"tested_on": "cell membrane integrity of C. albicans ATCC 10231 (strain A)", "test": "Membrane permeabilization assay (propidium iodide uptake)", "assay_type": "cell-based, Candida albicans", "conditions": "Ex.3 series; 4×MIC", "experimental": "FIG. 20 includes the Effect of the controls VOR (negative) and KANB (C14) (positive) as well as compounds 5-9 on the cell membrane integrity of C. albicans ATCC 10231 (strain A). […] The experiments were performed in duplicate.\nPI is a membrane impermeable dye that cannot enter the intact cell unless the cell membrane is damaged. Using these compounds, we also wanted to determine how do the lengths of the alkyl side chains correlate with the membrane disruption potential of these antifungal agents.\nMembrane permeabilization assay. […] Based on these findings, we assumed that the hybrids generated in this study could also potentially cause fungal death by disrupting the fungal membrane. To investigate this possible mechanism of action, we evaluated the effect of compounds 20 and 26 on fungal cell membrane integrity by using propidium iodide (PI) dye as a probe (FIG. 12). […] Afterwards, the dye binds to nucleic acid and fluoresces, which can be observed under a fluorescence microscope. […]\nTherefore, we decided to study the potential effect of compounds 8 and 9 with C12 and C14 linear alkyl chains to determine the impact of chain length on membrane disruption (FIG. 20). […] The propidium iodide (PI) dye was used as a probe as it can only enter cells with compromised membrane and bind to nucleic acid to emit fluorescence, which can be observed under a fluorescence microscope. […]"}, "[7]": {"tested_on": "Candida albicans ATCC 10231", "conditions": "Table 1; strain A; control azoles FLC, ITC, POS, VOR; previously reported (refs 5, 16); cited from earlier work"}, "C. albicans ATCC 64124 [8]": {"tested_on": "C. albicans ATCC 64124", "conditions": "Table 1; strain B; control azoles; previously reported (refs 5, 16); cited from earlier work"}, "Candida krusei ATCC 6258": {"tested_on": "Candida krusei ATCC 6258", "conditions": "Table 1; strain I; control azoles; previously reported (refs 5, 16); cited from earlier work"}, "[9]": {"conditions": "read-out: MIC (MIC-2), in parentheses"}},
  "note": "Like-named read-outs stand apart in the source and are kept apart here. Marks after values point to notes of the source that are not given here.",
  "data": [
    {"smiles": "C[C@@H](c1ncncc1F)[C@](O)(Cn1cncn1)c1ccc(F)cc1F", "note": "[VOR, voriconazole]", "values": [
      {"measurement": "MIC", "setting": "C. albicans ATCC 64124 [1]; read-out: MIC (MIC-2)", "result": 3.9, "unit": "µg/mL"},
      {"measurement": "MIC", "setting": "C. albicans ATCC 64124 [1]; [9]", "result": 11.2, "unit": "µM"},
      {"measurement": "MIC", "setting": "[2]; read-out: MIC (MIC-2)", "result": 1.95, "unit": "µg/mL"},
      {"measurement": "MIC", "setting": "[2]; [9]", "result": 5.6, "unit": "µM"},
      {"measurement": "MIC", "setting": "[3]; read-out: MIC (MIC-2)", "result": 7.8, "unit": "µg/mL"},
      {"measurement": "MIC", "setting": "[3]; [9]", "result": 22.3, "unit": "µM"},
      {"measurement": "MIC", "setting": "[4]; read-out: MIC (MIC-2)", "result": 1.95, "unit": "µg/mL"},
      {"measurement": "MIC", "setting": "[4]; [9]", "result": 5.6, "unit": "µM"},
      {"measurement": "effect in time-kill assay", "setting": "[5]", "result": "fungistatic"},
      {"measurement": "PI dye uptake by fungal cells", "setting": "[6]", "result": "did not allow for PI uptake"},
      {"measurement": "MIC (MIC-2)", "setting": "[7]", "result": "0.24^c μg/mL"},
      {"measurement": "MIC (MIC-2)", "setting": "C. albicans ATCC 64124 [8]", "result": "3.9^c μg/mL"},
      {"measurement": "MIC (MIC-2)", "setting": "Candida krusei ATCC 6258", "result": "0.12^c μg/mL"}
    ]}
  ]
}
